# Reference: ChEMBL document CHEMBL5543140 (J Med Chem, 2024)
# Activity calls are given as the source filed them. The calls are words filed in the database; no cut-off is given here.
# Assays:
# [1] = AUCinf in Wistar rat brain at 5 mg/kg, po measured upto 48 hrs; format: ADME, organism-based
# [2] = Clearance in male Sprague-Dawley rat plasma at 1 mg/kg, iv measured upto 8 hrs by LC-MS/MS analysis; format: ADME, organism-based
# [3] = molecular target: 5-hydroxytryptamine receptor 3A (Homo sapiens) (UniProt P46098); assay: Binding affinity to human 5-HT3 receptor (unknown origin) at 10 uM by radioligand displacement assay
# Chain of 5-hydroxytryptamine receptor 3A (Homo sapiens) (P46098 whole entry): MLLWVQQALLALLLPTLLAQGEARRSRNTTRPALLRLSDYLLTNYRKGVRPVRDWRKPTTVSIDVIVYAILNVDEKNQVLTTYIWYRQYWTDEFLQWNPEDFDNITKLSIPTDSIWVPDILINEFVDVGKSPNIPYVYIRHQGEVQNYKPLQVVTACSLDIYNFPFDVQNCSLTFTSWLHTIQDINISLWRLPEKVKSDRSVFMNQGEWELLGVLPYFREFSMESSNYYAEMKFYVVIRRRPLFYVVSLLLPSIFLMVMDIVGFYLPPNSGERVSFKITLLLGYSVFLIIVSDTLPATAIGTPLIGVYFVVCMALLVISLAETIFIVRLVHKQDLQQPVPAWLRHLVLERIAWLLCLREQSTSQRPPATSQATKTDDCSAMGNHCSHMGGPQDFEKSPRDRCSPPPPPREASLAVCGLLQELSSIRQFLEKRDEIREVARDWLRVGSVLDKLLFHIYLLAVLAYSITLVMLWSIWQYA
# [4] = AUCinf in Wistar rat plasma at 5 mg/kg, po measured upto 48 hrs; format: ADME, organism-based
# Mus musculus [5] = assay: Induction of neuroplasticity in C57BL/6J mouse assessed as increase in Homer1 mRNA expression in brain frontal cortex at 0.3 mg/kg, sc single dose by RT-PCR analysis; format: functional, organism-based
# [6] = Cmax in male Sprague-Dawley rat CSF at 1 mg/kg, iv measured upto 8 hrs by LC-MS/MS analysis; format: ADME, organism-based, Cerebrospinal fluid
# Brain = assay: Drug binding in male C57BL/6J mouse brain homogenate at 1 mg/kg, iv measured upto 8 hrs by LC-MS/MS analysis; format: ADME, organism-based; settings: in vivo
# Hippocampus [7] = assay: Induction of neuroplasticity in C57BL/6J mouse assessed as increase in Homer1 mRNA expression in brain hippocampus at 0.3 mg/kg, sc single dose by RT-PCR analysis; format: functional, organism-based
# [8] = molecular target: T1, 5-hydroxytryptamine receptor 2C (Homo sapiens, UniProt P28335); assay: Agonist activity at human 5-HT2C receptor expressed in HEK293 cells assessed as IP2 production measured after 30 mins incubation by HTRF assay; format: functional, cell-based
# T1 sequence (P28335 whole entry): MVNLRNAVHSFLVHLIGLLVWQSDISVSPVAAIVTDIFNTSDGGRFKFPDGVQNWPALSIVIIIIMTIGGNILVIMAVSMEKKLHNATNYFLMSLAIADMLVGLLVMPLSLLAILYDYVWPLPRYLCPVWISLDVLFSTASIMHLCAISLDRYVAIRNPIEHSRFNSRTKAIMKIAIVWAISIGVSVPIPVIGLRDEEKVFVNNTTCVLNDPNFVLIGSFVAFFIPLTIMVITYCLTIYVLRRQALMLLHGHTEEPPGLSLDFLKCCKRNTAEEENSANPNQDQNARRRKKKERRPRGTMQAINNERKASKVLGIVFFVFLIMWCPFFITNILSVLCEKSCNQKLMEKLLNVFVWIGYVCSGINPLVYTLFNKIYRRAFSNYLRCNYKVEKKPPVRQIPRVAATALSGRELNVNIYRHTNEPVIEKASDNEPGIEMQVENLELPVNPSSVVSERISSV
# [9] = Metabolic stability in human hepatocytes assessed as half life at 10 uM; format: ADME, cell-based, Hepatocyte
# [10] = Metabolic stability in dog liver microsomes assessed as half life at 1 uM incubated for 120 mins in presence of NADPH; format: ADME, Canis lupus familiaris, Microsome
# [11] = Half life in male Sprague-Dawley rat plasma at 1 mg/kg, iv measured upto 8 hrs by LC-MS/MS analysis; format: ADME, organism-based
# Hippocampus [12] = assay: Induction of neuroplasticity in C57BL/6J mouse assessed as increase in EGR2 mRNA expression in brain hippocampus at 3 mg/kg, sc single dose by RT-PCR analysis; format: functional, organism-based
# [13] = Ex vivo binding in C57BL/6J mouse brain frontal cortex assessed as inhibition of [3H]Cimbi-36 binding at 1 mg/kg, sc measured after 220 mins by liquid scintillation counting analysis (reference value: 0%); format: functional; settings: 3.667 h
# [14] = Cmax in Wistar rat plasma at 5 mg/kg, po measured upto 48 hrs; format: ADME, organism-based
# [15] = molecular target: 5-hydroxytryptamine receptor 2A (Homo sapiens, UniProt P28223); assay: Binding affinity to human [125I]LSD-labeled 5-HT2A receptor expressed in HEK293 cell membrane incubated for 60 mins; format: cell membranes
# Chain of 5-hydroxytryptamine receptor 2A (P28223 whole entry): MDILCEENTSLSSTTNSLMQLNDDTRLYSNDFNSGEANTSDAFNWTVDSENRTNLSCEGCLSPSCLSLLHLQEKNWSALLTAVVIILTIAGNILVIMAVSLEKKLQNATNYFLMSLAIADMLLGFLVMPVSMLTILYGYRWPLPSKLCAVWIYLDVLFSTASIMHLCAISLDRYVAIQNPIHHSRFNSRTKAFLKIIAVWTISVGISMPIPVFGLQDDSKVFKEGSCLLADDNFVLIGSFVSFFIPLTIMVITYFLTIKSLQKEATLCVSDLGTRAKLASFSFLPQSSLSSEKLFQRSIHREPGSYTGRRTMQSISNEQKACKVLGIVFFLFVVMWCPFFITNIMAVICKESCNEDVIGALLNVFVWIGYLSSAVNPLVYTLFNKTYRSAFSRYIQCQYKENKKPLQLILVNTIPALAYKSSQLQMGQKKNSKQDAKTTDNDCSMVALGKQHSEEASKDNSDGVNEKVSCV
# [16] = Clearance in Wistar rat plasma at 1 mg/kg, iv measured upto 48 hrs; format: ADME, organism-based
# [17] = Cmax in Wistar rat brain at 1 mg/kg, iv measured upto 48 hrs; format: ADME, organism-based
# [18] = Brain to plasma ratio in Wistar rat at 1 mg/kg, iv measured upto 48 hrs; format: ADME, organism-based; settings: read-out: BPR
# Hippocampus [19] = assay: Induction of neuroplasticity in C57BL/6J mouse assessed as increase in IGF1 mRNA expression in brain hippocampus at 0.3 mg/kg, sc single dose by RT-PCR analysis; format: functional, organism-based
# [20] = MRTlast in Wistar rat plasma at 5 mg/kg, po measured upto 48 hrs; format: ADME, organism-based
# [21] = Tmax in male Sprague-Dawley rat brain at 1 mg/kg, iv measured upto 8 hrs by LC-MS/MS analysis; format: ADME, organism-based
# [22] = Tmax in male Sprague-Dawley rat CSF at 1 mg/kg, iv measured upto 8 hrs by LC-MS/MS analysis; format: ADME, organism-based, Cerebrospinal fluid
# [23] = Ex vivo binding in C57BL/6J mouse brain frontal cortex assessed as inhibition of [3H]Cimbi-36 binding at 1 mg/kg, sc measured after 5 mins by liquid scintillation counting analysis (reference value: 0%); format: functional
# [24] = Initial plasma concentration in Wistar rat at 1 mg/kg, iv measured upto 48 hrs; format: ADME, organism-based
# [25] = Drug metabolism in rat hepatocytes assessed as formation of sulfoxide metabolites at 10 uM by HRAMS analysis; format: ADME, cell-based, Hepatocyte
# Hippocampus [26] = assay: Induction of neuroplasticity in C57BL/6J mouse assessed as increase in BDNF mRNA expression in brain hippocampus at 3 mg/kg, sc single dose by RT-PCR analysis; format: functional, organism-based
# Mus musculus [27] = assay: Psychedelic effect in C57BL/6J mouse assessed as maximal number of 5-HT2A receptor dependent head-twitch responses by visual observation at 1 mg/kg, sc (reference value: 3); format: functional
# [28] = molecular target: Muscarinic acetylcholine receptor M5 (Homo sapiens) (UniProt P08912); assay: Displacement of [3H]4-DAMP from human recombinant muscarinic M5 receptor expressed in HEK293 cells at 10 uM incubated for 60 mins by radiometric based scintillation counter assay relative to control; format: cell-based
# Chain of Muscarinic acetylcholine receptor M5 (Homo sapiens) (P08912 whole entry): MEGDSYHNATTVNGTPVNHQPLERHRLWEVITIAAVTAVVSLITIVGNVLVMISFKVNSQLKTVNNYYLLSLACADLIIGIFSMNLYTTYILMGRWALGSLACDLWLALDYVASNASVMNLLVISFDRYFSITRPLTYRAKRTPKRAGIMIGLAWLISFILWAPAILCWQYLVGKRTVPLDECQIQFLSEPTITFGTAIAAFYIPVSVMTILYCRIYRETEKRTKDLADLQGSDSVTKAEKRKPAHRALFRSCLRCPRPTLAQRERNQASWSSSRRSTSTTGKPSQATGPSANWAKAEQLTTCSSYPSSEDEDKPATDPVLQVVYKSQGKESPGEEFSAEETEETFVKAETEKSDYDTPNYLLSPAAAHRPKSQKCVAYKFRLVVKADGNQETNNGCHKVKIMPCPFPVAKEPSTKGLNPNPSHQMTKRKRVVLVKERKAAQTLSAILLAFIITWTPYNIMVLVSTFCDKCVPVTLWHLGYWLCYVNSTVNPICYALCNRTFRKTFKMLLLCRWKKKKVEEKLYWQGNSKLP
# Mus musculus [29] = assay: Locomotor activity in C57BL/6J mouse assessed as distance traveled at 10 mg/kg, po measured for 15 to 25 mins (reference value: 1710 +/- 120 cm) by Ethovision tracking system; format: functional; settings: time 15-25 min
# [30] = molecular target: T2, 5-hydroxytryptamine receptor 2B (Homo sapiens, UniProt P41595); assay: Binding affinity to human [125I]LSD-labeled 5-HT2B receptor expressed in CHO cell membrane incubated for 60 mins; format: cell membranes
# T2 sequence (P41595 whole entry): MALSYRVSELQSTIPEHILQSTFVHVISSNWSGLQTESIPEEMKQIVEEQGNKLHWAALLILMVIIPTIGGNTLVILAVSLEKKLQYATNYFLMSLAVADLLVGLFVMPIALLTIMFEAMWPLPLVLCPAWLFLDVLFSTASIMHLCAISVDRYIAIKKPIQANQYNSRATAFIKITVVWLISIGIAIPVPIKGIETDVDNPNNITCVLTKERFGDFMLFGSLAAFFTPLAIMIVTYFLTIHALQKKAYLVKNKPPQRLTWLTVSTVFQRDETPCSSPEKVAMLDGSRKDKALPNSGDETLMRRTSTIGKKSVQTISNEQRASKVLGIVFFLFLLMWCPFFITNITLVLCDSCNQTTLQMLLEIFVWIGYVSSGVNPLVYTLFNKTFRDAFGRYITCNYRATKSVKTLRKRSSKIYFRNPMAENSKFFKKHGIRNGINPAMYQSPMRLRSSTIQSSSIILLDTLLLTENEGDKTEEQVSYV
# Mus musculus [31] = assay: Psychedelic effect in C57BL/6J mouse assessed as induction of 5-HT2A receptor dependent maximal head-twitch responses by visual observation at 1 mg/kg, sc at 40 mins post- administration; format: functional, organism-based
# [32] = molecular target: Alpha-2A adrenergic receptor (Homo sapiens, UniProt P08913); assay: Displacement of [3H]-rauwolscine from human recombinant adrenergic alpha-2A receptor expressed in CHO-K1 cells incubated for 60 mins by […] analysis relative to control; format: cell-based
# Chain of Alpha-2A adrenergic receptor (P08913 whole entry): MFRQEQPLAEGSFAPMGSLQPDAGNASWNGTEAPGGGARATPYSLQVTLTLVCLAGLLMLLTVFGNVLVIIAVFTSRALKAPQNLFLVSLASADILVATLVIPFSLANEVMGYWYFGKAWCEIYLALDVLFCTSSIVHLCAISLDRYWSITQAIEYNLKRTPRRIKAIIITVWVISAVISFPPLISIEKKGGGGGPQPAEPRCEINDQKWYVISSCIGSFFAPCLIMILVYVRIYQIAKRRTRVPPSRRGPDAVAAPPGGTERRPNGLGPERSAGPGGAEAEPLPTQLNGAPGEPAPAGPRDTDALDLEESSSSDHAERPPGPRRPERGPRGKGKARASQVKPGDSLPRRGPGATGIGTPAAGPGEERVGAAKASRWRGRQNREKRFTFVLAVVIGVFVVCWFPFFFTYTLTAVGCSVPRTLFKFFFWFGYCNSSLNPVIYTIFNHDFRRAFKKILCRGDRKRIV
# [33] = Tmax in male Sprague-Dawley rat plasma at 1 mg/kg, iv measured upto 8 hrs by LC-MS/MS analysis; format: ADME, organism-based
# [34] = molecular target: T2, 5-hydroxytryptamine receptor 2B; assay: Agonist activity at human 5-HT2B receptor expressed in CHO cells assessed as maximal IP2 production measured after 30 mins incubation by HTRF assay relative to control; format: functional, cell-based; settings: read-out: EC50
structure (smiles),measurement,setting,value
COc1cc([Se]C(F)(F)F)c(OC)cc1CCN.Cl,AUC(0-inf),[1],2880 ng·h/mL
same,clearance,[2],79.5 mL/min/kg
same,Activity,[3],inactive
same,AUC(0-inf),[4],49.7 ng·h/mL
same,Activity,Mus musculus [5],Active
same,Cmax,[6],48.7 ng/mL
same,Activity,Brain,> 98%
same,Activity,Hippocampus [7],inactive
same,EC50,[8],92 nM
same,half-life at 10 µM,[9],16 h
same,half-life at 1 µM,[10],> 2 h
same,half-life,[11],1.53 h
same,Activity,Hippocampus [12],inactive
same,inhibition in vivo at 1 mg/kg,[13],27%
same,Cmax,[14],18.6 ng/mL
same,Ki,[15],4.1 nM
same,clearance,[16],328 mL/min/kg
same,Cmax,[17],890 ng/mL
same,Kp at 48 h,[18],64.3
same,Activity,Hippocampus [19],inactive
same,MRT last at 48 h,[20],2.25 h
same,Tmax,[21],0.25 h
same,Tmax,[22],4.98 min
same,inhibition in vivo at 1 mg/kg,[23],13%
same,C0 at 48 h,[24],67.2 ng/mL
same,Drug metabolism,[25],Metabolite_Detected
same,Activity,Hippocampus [26],inactive
same,Activity,Mus musculus [27],17
same,inhibition,[28],83%
same,Activity,Mus musculus [29],1974 cm
same,Ki,[30],10 nM
same,Activity,Mus musculus [31],Active
same,Ki,[32],72 nM
same,Tmax,[33],4.98 min
same,EC50,[34],7.3 nM
